Data: patent US20220387491A1, “METHODS OF MAKING CELLULAR THERAPIES” (Secura Bio, Inc., priority 2019, published 2022)
Entries after “also recorded” stand apart in the source; their conditions may differ.

How the values were obtained:
[1] = read-out: Cmax (ss); reported clinical plasma exposure at recommended phase II dose (RP2D); cited from earlier work
PI3K-δ [2] = target: T1, PI3K-δ (Homo sapiens, UniProt O00329); experiment: Whole blood assay, p-Akt S473 in LPS-stimulated monocytes; type: cell-based; set-up: from tissue; host or cells: whole blood; LPS-stimulated monocytes (gated by flow cytometry); details: for PI3K-δ inhibition at clinically achievable exposures (in words): whole blood assay related to clinical plasma exposure
Experimental: (§1) The relative effects of different PI3K inhibitors on PI3K-δ and PI3K-γ cell signaling downstream of LPS and fMLP, respectively, were assessed in whole blood using phosphorylated (p)-Akt serine-473 as the readout. Briefly, LPS-stimulated monocytes and fMLP-stimulated monocytes were cultured in the presence of 2 μg/mL LPS or 50 ng/mL fMLP, respectively. After 10 minutes of stimulation, red blood cells were lysed and remaining leukocytes were fixed, permeabilized and stained with CD45, CD3, CD45RA, CD14, CD19 and p-Akt S473 (D9E clone) antibodies. Data was acquired on an LSRII cytometer (BD Biosciences) equipped with at least 4 lasers (405, 488, 561, and 640 nm). Monocytes were gated and the percentage of positive p-Akt monocytes was measured. IC50 dose curves were generated and IC50 values calculated.
(§2) Whole blood potencies against PI3K-δ and PI3K-γ were measured through inhibition of p-Akt in LPS-stimulated monocytes and fMLP-stimulated monocytes, respectively. Whole blood assay IC50 values, which encompass enzyme inhibition, cell penetration, and protein binding of inhibitors, are related to reported clinical plasma exposures of each agent at recommended phase II dose (RP2D).

PI3K-γ [3] = target: T2, PI3K-γ (Homo sapiens, UniProt P48736); experiment: Whole blood assay, p-Akt S473 in fMLP-stimulated monocytes; type: cell-based; set-up: from tissue; host or cells: whole blood; fMLP-stimulated monocytes (gated by flow cytometry); details: for PI3K-γ inhibition at clinically achievable exposures (in words): whole blood assay related to clinical plasma exposure
Experimental: Briefly, LPS-stimulated monocytes and fMLP-stimulated monocytes were cultured in the presence of 2 μg/mL LPS or 50 ng/mL fMLP, respectively. After 10 minutes of stimulation, red blood cells were lysed and remaining leukocytes were fixed, permeabilized and stained with CD45, CD3, CD45RA, CD14, CD19 and p-Akt S473 (D9E clone) antibodies. […] Monocytes were gated and the percentage of positive p-Akt monocytes was measured. IC50 dose curves were generated and IC50 values calculated.
as §2

[4] = tested on: T cells from human donors or CLL patients; experiment: Ex vivo T cell expansion; type: cell-based
T cells = experiment: Expression of T cell exhaustion markers (TIM-3, LAG-3) by flow cytometry; type: cell-based, human
From the text: (§3) These early memory T cells populations have been associated with CAR-T cells that induce complete remissions.

[5] = tested on: T cells taken from CLL patients; experiment: Proportion of early memory T cell populations; type: cell-based, human; details: 200 nM; compared with standard culture conditions
From the text: as §3

CD19 CAR-T cells = experiment: CAR-T-mediated cytotoxicity against tumor cells; type: cell-based; details: addition during generation of CD19 CAR-T cells
From the text: as §3

PI3K-δ [6] = target: T1, PI3K-δ; experiment: PI3K-δ target inhibition in follicular lymphoma patients after oral dosing; type: in vivo; set-up: from tissue; host or cells: whole blood of follicular lymphoma patients after oral dosing
Experimental: as §1
(§4) At cycle 2 Day 1 pre, a timepoint corresponding to the 12 hour point when the next dose is to be given, the degree of inhibition is decreased; however, inhibition is re-established with the administration of the next dose.

PI3K-γ [7] = target: T2, PI3K-γ; experiment: PI3K-γ target inhibition in follicular lymphoma patients after oral dosing; type: in vivo; set-up: from tissue; host or cells: whole blood of follicular lymphoma patients after oral dosing
Experimental: as §1, §4
Accordingly, BID should then re-establish inhibition in this 60-70% range.

T2 sequence (P48736 whole entry): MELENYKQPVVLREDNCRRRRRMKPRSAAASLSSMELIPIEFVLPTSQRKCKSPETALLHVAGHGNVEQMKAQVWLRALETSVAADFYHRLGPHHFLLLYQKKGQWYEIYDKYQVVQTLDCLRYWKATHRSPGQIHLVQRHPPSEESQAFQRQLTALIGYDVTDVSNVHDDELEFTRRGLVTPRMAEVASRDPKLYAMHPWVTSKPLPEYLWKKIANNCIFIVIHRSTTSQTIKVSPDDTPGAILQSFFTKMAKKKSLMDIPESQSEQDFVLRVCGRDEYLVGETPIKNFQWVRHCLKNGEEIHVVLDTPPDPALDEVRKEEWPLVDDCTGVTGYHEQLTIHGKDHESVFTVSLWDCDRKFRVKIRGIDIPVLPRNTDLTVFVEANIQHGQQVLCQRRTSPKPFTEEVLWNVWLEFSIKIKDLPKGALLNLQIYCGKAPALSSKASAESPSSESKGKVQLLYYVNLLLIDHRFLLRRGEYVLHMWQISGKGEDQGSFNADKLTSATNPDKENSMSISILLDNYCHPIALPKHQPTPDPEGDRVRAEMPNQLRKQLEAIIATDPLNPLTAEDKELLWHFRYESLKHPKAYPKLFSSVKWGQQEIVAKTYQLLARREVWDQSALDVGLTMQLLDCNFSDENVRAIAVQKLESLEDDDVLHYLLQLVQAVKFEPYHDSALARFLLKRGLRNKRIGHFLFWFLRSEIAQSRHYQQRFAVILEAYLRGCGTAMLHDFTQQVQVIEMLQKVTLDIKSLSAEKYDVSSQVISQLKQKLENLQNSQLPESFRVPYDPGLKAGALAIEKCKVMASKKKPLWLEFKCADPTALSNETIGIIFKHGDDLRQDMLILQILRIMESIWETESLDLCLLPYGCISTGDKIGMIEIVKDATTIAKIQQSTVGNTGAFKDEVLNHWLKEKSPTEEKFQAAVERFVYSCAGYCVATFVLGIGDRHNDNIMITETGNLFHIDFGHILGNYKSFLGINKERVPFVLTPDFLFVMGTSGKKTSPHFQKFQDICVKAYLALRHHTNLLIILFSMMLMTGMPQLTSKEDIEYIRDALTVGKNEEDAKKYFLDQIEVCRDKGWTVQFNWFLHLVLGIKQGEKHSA
T1 sequence (O00329 whole entry): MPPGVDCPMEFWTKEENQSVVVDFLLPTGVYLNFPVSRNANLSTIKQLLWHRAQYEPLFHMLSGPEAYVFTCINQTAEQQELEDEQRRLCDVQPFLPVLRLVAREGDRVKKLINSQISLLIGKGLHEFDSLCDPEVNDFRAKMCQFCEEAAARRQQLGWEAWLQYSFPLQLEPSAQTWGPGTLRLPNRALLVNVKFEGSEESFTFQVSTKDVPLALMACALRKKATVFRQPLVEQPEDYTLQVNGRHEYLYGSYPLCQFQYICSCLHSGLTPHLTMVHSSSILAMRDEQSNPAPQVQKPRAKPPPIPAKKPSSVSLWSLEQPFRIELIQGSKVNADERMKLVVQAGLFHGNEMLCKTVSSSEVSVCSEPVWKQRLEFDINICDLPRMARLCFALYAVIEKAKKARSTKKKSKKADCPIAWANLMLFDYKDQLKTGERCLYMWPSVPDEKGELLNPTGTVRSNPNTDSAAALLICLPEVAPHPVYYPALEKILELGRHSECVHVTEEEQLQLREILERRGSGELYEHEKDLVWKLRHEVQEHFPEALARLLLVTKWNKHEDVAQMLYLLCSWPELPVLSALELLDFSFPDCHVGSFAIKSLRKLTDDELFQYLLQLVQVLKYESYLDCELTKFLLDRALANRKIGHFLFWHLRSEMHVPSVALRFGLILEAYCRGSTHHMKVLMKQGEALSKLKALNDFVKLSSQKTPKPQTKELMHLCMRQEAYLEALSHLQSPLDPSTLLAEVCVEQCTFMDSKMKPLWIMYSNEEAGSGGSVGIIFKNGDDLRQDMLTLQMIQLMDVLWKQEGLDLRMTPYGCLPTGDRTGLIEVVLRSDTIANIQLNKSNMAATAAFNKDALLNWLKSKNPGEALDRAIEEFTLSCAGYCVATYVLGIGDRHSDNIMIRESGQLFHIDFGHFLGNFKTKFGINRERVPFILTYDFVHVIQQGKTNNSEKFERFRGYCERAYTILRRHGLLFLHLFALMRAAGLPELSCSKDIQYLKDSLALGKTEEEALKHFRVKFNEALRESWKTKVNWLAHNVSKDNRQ
T1 sequence (P27986 whole entry partner): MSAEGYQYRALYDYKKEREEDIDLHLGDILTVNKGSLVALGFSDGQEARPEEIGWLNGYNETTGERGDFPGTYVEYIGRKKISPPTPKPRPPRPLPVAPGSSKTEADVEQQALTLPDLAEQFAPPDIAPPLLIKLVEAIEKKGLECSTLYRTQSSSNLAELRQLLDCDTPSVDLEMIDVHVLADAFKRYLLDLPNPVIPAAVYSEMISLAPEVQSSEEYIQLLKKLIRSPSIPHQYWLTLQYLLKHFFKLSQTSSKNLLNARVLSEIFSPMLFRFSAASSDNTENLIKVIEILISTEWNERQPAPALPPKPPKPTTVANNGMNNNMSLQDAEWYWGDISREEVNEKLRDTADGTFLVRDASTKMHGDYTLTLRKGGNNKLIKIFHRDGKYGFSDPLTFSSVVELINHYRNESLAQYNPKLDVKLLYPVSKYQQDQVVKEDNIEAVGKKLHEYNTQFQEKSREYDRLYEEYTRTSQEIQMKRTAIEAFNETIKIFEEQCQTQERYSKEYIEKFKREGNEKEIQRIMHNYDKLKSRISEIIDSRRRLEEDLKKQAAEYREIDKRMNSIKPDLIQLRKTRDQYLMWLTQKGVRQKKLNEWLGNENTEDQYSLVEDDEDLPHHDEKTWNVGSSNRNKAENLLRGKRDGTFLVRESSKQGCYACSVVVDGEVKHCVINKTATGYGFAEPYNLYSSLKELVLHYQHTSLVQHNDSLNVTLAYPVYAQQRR

| PI3K-δ inhibition at clinically achievable exposures (in words) (PI3K-δ [2]) | PI3K-γ inhibition at clinically achievable exposures (in words) (PI3K-γ [3]) | SMILES | Cmax [1] [µM] | concentration of maximal effect on T cell expansion [4] [µM] | other results |
| --- | --- | --- | --- | --- | --- |
| not PI3K-δ |  | C[C@H](NC(=O)c1c(N)nn2cccnc12)c1cc2cccc(C#Cc3cnn(C)c3)c2c(=O)n1-c1ccccc1 [IPI-549, 2-amino-N-[(1S)-1-[8-[2-(1-methylpyrazol-4-yl)ethynyl]-1-oxo-2-phenylisoquinolin-3-yl]ethyl]pyrazolo[1,5-a]pyrimidine-3-carboxamide] | 9.1 |  |  |
|  |  | CC(C)Oc1ccc(-c2nn([C@@H](C)c3oc4ccc(F)cc4c(=O)c3-c3cccc(F)c3)c3ncnc(N)c23)cc1F [Umbralisib] | 9.2 |  | IC50 (PI3K-γ [3]): 55 ± 16 µM |
| did not meaningfully inhibit | did not meaningfully inhibit | CC[C@H](Nc1ncnc2nc[nH]c12)c1oc2ccccc2c(=O)c1-c1cccc(F)c1 [Tenalisib, (S)-2-(1-((7H-purin-6-yl)amino)propyl)-3-(3-fluorophenyl)-4H-chromen-4-one] |  |  | IC50 (PI3K-δ [2]; whole blood, inhibition of p-Akt in LPS-stimulated monocytes, read-out: PI3Kδ IC50): > 50 µM; PI3Kγ IC50 (PI3K-γ [3]; whole blood, inhibition of p-Akt in fMLP-stimulated monocytes): No inhibition |
| inhibited both PI3K-δ and PI3K-γ | inhibited both PI3K-δ and PI3K-γ | C[C@H](Nc1ncnc2[nH]cnc12)c1cc2cccc(Cl)c2c(=O)n1-c1ccccc1 [Duvelisib, (S)-3-(1-((9H-purin-6-yl)amino)ethyl)-8-chloro-2-phenylisoquinolin-1(2H)-one] | 2.5 | 0.04 | increase in T cell expansion ([4]; T cells from human donors or CLL patients): 3 to 4 fold; expression of T cell exhaustion markers (TIM-3, LAG-3) (T cells): reduces expression; proportion of early memory T cell populations [5]: increases the proportion of early memory T cell populations; cytotoxic activity of CAR-T cells to kill tumor cells (CD19 CAR-T cells): increases; degree of inhibition of PI3K-δ (PI3K-δ [6]; cycle 2 Day 1 pre (12 hour point before next dose)): decreased; inhibition at 25 mg (PI3K-δ [6]; human, follicular lymphoma patients, 25 mg oral, 1 and 4 hours after dosing): 90 to 95%; degree of inhibition of PI3K-γ (PI3K-γ [7]; cycle 2 Day 1 pre): decreased; inhibition of PI3K-γ (PI3K-γ [7]; follicular lymphoma patients, 25 mg, 1 and 4 hours): 60-70% |

| SMILES | PI3K-δ inhibition at clinically achievable exposures (in words) (PI3K-δ [2]) | PI3K-γ inhibition at clinically achievable exposures (in words) (PI3K-γ [3]) | Cmax [1] [µM] | concentration of maximal effect on T cell expansion [4] [µM] | other results |
| --- | --- | --- | --- | --- | --- |
| CC[C@H](Nc1ncnc2[nH]cnc12)c1nc2cccc(F)c2c(=O)n1-c1ccccc1 [Idelalisib, (S)-2-(1-(9H-purin-6-ylamino)propyl)-5-fluoro-3-phenylquinazolin-4(3H)-one] | single isoform inhibition; also recorded: sufficient to inhibit PI3K-δ | not sufficient to inhibit PI3K-γ | 4.8 | 1 |  |
